Data published in patent US20240201589A1, “ACTINIC RAY-SENSITIVE OR RADIATION-SENSITIVE RESIN COMPOSITION, ACTINIC RAY-SENSITIVE OR RADIATION-SENSITIVE FILM, PATTERN FORMING METHOD, AND METHOD FOR MANUFACTURING ELECTRONIC DEVICE” (FUJIFILM Corporation, priority 2021, published 2024).

Assay: Acid dissociation constants pKa of acid generated from compound (I), by computation (ACD/Labs software package 1; Gaussian 16 DFT if not computable)
Conditions: Table 1; values equal the difference between maximum and minimum pKa of the generated acid groups
From the text: In the present specification, the acid dissociation constant (pKa) is the pKa in an aqueous solution and is specifically a value determined by computation using the following software package 1 based on a Hammett substituent constant and a database of known literature values.
All pKa values in the present specification are values determined by computation using this software package.
Software package 1: Advanced Chemistry Development (ACD/Labs) Software V 8.14 for Solaris (1994-2007 ACD/Labs).
In the present specification, the pKa is a value determined by computation using the software package 1 based on the Hammett substituent constant and the database of known literature values as described above. When the pKa cannot be computed using this method, a value obtained using Gaussian 16 based on the DFT (density functional theory) is used.
The pKa values of the at least two acid groups generated from the compound (I) upon irradiation with actinic rays or radiation are determined using the following method.
(1) Suppose that all the acid anionic groups included in the compound (I) are replaced with their corresponding acid groups to generate an acid group-containing compound (PIA). In this case, there are two cases depending on the structure of the compound (I). In one case (case A), the acid group-containing compound (PIA) generated is a single compound (single molecule) having a plurality of acid groups. In the other case (case B), a plurality of compounds (plurality of molecules) each having at least one acid group are formed.
(2) The case A (its one specific example is mode 1 described below) will be described. A compound in which, among the plurality of acid groups included in the acid group-containing compound (PIA), an acid group having the smallest acid dissociation constant is reconverted to the corresponding acid anionic group is defined as an acid group-containing compound (PIA-1). The pKa when the acid group-containing compound (PIA) is converted to the acid group-containing compound (PIA-1) is determined and used as the pKa of the acid group reconverted to the acid anionic group. Next, a compound in which, among one or the plurality of acid groups included in the acid group-containing compound (PIA-1), an acid group having the smallest acid dissociation constant (when only one acid group is present, this acid group is used) is reconverted to the corresponding acid anionic group is defined as an acid group-containing compound (PIA-2). The pKa when the acid group-containing compound (PIA-1) is converted to the acid group-containing compound (PIA-2) is determined and used as the pKa of the acid group reconverted to the acid anionic group. This procedure is repeated until the resulting compound has no acid group, and the pKa values of the plurality of acid groups included in the acid group-containing compound (PIA) are thereby determined.
In the above method, when the number of acid groups having the smallest acid dissociation constant among the plurality of acid groups is two or more, one of these acid groups is arbitrarily selected, and the pKa when the compound is converted to a compound (PIA #) obtained by reconverting the selected acid group to its corresponding acid anionic group is determined. As for the pKa value of each of the remaining (unselected) acid groups, the pKa when the compound (PIA #) is converted to a “compound (PIA ##) obtained by reconverting an acid group newly selected from the remaining acid groups to its corresponding acid anionic group” is determined and used.
For a compound having one acid group, the pKa when the acid group in this compound is reconverted to the corresponding acid anionic group is used as the pKa of the acid group. When the compound having at least one acid group is a compound having a plurality of acid groups, the pKa of each acid group is determined using the method described in (2) above. […]

Compound	pKa
O=C(NC(=O)C(F)(F)S(=O)(=O)[O-])c1ccc([S+](c2ccccc2)c2ccccc2)cc1 [Compound X-1]	9.96
O=C(NC(C(F)(F)F)C(F)(F)S(=O)(=O)[O-])c1ccc([S+](c2ccccc2)c2ccccc2S(=O)(=O)O)cc1 (stereo not shown) [Compound X-3]	1.24
O=S(=O)(O)c1ccc([S+](c2ccccc2)c2ccc(OCC(F)(F)S(=O)(=O)[O-])cc2)cc1 (stereo not shown) [Compound X-6]	0.77
O=C([N-]S(=O)(=O)C(F)(F)C(F)(F)C(F)(F)S(=O)(=O)[N-]C(=O)c1ccccc1[S+](c1ccccc1)c1ccccc1)c1ccccc1[I+]c1ccccc1 [Compound X-9]	0.89
COc1ccc([I+]c2cccc(C(=O)NS(=O)(=O)C(F)(F)C(F)(F)C(F)(F)S(=O)(=O)[N-]S(=O)(=O)C(F)(F)F)c2)cc1 [Compound X-11]	10.26
Cc1ccc([I+]c2ccc(C(=O)NS(=O)(=O)C(F)(F)C(F)(F)C(F)(F)S(=O)(=O)[N-]S(=O)(=O)C(F)(F)F)cc2)cc1 [Compound X-12]	5.67
O=C([N-]C(=O)c1ccccc1[I+]c1ccccc1)c1ccc([I+]c2ccc(OS(=O)(=O)C(F)(F)C(F)(F)C(F)(F)S(=O)(=O)[O-])cc2)cc1 [Compound X-16]	12.11
